Legend:
[1] = test system: mixed hyperlipidaemia and hypertriglyceridaemia in patients; assay: Clinical study of the Agent dosed with a fibrate drug; format: in vivo, human
[2] = test system: hypercholesterolaemia in patients following transplantation; assay: Clinical study of the Agent in post-transplant patients on immunosuppressive therapy; format: in vivo, human
Description: Trial Design This is a multicenter, randomized, double-blind, parallel-group clinical trial. […] Patients who have had their dose titrated up to 40 mg may have their dose titrated back down to 20 mg at the investigator's discretion.

[3] = test system: human hepatocytes; assay: Metabolism of [14C]-labelled Agent by human hepatocytes; format: in vitro ADME; settings: human hepatocytes in culture, 0-48 hours
Description: Cultures were terminated with ethanol after 0, 6, 24 and 48 hours of incubation and stored at approximately −20° C. until analysed. The metabolic competence of the hepatocytes was confirmed at the time of incubation by examining their ability to metabolise [^14C]-ethoxycoumarin (25 μM); aliquots were removed into methanol at the same time points as for the test compound.
Following incubation of [^14C]-ZD4522 with hepatocytes, metabolite profiles were generated by High Performance Liquid Chromatography (HPLC). The ability of hepatocytes to metabolise [^14C]-ethoxycoumarin was confirmed by HPLC.

[4] = test system: heart transplant patients; settings: cited from earlier work
[5] = test system: patients; settings: cited from earlier work
[6] = test system: cytochrome P450 enzymes, in particular 3A4; settings: cited from earlier work
[7] = patients undertaking immunosuppressive therapy

## CC(C)c1nc(N(C)S(C)(=O)=O)nc(-c2ccc(F)cc2)c1/C=C/[C@@H](O)C[C@@H](O)CC(=O)O [Agent, (E)-7-[4-(4-fluorophenyl)-6-isopropyl-2-[methyl(methylsulfonyl)amino]pyrimidin-5-yl](3R,5S)-3,5-dihydroxyhept-6-enoic acid]
[1]; combined with a fibrate drug
  treating mixed hyperlipidaemia and hypertriglyceridaemia when combined with a fibrate drug: extremely effective
[1]; patients also taking a fibrate drug
  side effects of concomitant dosing of the Agent and the fibrate drug: without any clinically significant side effects
[2]; patients following transplantation
  treating hypercholesterolaemia in patients following transplantation: extremely effective
[2]; [7]
  level of cholesterol lowering compared with what was previously achieved, such as by pravastatin: much higher levels of cholesterol lowering
  side effects of concomitant dosing of the Agent and immunosuppressive drug(s): without any clinically significant side effects
[3]
  metabolism of the Agent by whole hepatocytes: not significantly metabolised

## CC[C@H](C)C(=O)O[C@H]1C[C@@H](C)C=C2C=C[C@H](C)[C@H](CC[C@@H]3C[C@@H](O)CC(=O)O3)[C@H]21 [Lovastatin, lovastatin]
[4]
  cholesterol levels in heart transplant patients: lower cholesterol levels

## CC(C)c1c(C(=O)Nc2ccccc2)c(-c2ccccc2)c(-c2ccc(F)cc2)n1CC[C@@H](O)C[C@@H](O)CC(=O)O [atorvastatin]
[5]; low doses of atorvastatin, European SmPC
  patients with clinically important (>3 times ULN) elevations in serum ALT: 0.8%

## Cc1ccc(C)c(OCCCC(C)(C)C(=O)O)c1 [gemfibrozil]
[5]; gemfibrozil when a statin is also administered
  patients with myositis-flu like syndrome: 5%

## CC[C@H](C)C(=O)O[C@H]1C[C@H](O)C=C2C=C[C@H](C)[C@H](CC[C@@H](O)C[C@@H](O)CC(=O)O)[C@H]21 [pravastatin]
[6]
  rate of metabolism by P450: sufficiently low

— patent publication US6982157B1, “Drug combinations comprising (E)-7-[4-(4-fluorophenyl)-6-isopropyl-2-[methylsulfonyl)amino] pyrimidin-5-yl] (3r,5s) -3,5-dihydroxyhept-6-enoic acid and an inhibitor, inducer or substrate of p450 isoenzyme 3A4” (AstraZeneca AB, priority 1999, dated 2006)
